Experimental data as given in PubChem BioAssay (NCI).
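All cell lines were grown in 96-well plates and treated with compound for 48 hours. GI50 = concentration required for 50% inhibition of growth. TGI denotes the concentration required for complete inhibition of growth.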

Key:
Assay in all cases: NCI tumour cell line growth inhibition, 48 h
[1] = tested on: 786-0 renal
[2] = tested on: HOP-92 NSCLC
[3] = tested on: RPMI-8226 leukemia
[4] = tested on: EKVX NSCLC
[5] = tested on: IGROV1 ovarian
[6] = tested on: UO-31 renal
[7] = tested on: HCT-15 colon
[8] = tested on: SK-OV-3 ovarian
[9] = tested on: RXF 393 renal
[10] = tested on: MALME-3M melanoma
[11] = tested on: CAKI-1 renal
[12] = tested on: NCI-H522 lung
[13] = tested on: SK-MEL-5 melanoma
[14] = tested on: DU-145 prostate
[15] = tested on: HS 578T breast
[16] = tested on: UACC-257 melanoma
[17] = tested on: SW-620 colon
[18] = tested on: SK-MEL-28 melanoma
[19] = tested on: M14 melanoma
[20] = tested on: ACHN renal
[21] = tested on: A498 renal
[22] = tested on: SF-295 CNS
[23] = tested on: KM12 colon
[24] = tested on: T-47D breast
[25] = tested on: SR leukemia
[26] = tested on: PC-3 prostate
[27] = tested on: SF-268 CNS
[28] = tested on: LOX IMVI melanoma
[29] = tested on: U251 CNS
[30] = tested on: SNB-75 CNS
[31] = tested on: CCRF-CEM leukemia
[32] = tested on: HCT-116 colon
[33] = tested on: UACC-62 melanoma
[34] = tested on: MCF7 breast
[35] = tested on: HL-60(TB) leukemia
[36] = tested on: SK-MEL-2 melanoma
[37] = tested on: MOLT-4 leukemia
[38] = tested on: TK-10 renal
[39] = tested on: MDA-MB-231 breast
[40] = tested on: OVCAR-3 ovarian
[41] = tested on: NCI/ADR-RES ovarian
[42] = tested on: A549 NSCLC
[43] = tested on: COLO 205 colon
[44] = tested on: NCI-H460 lung
[45] = tested on: MDA-MB-435
[46] = tested on: OVCAR-4 ovarian
[47] = tested on: SNB-19 CNS
[48] = tested on: SN12C renal
[49] = tested on: SF-539 CNS
[50] = tested on: NCI-H226 lung
[51] = tested on: HT29 colon
[52] = tested on: OVCAR-8 ovarian
[53] = tested on: HCC-2998 colon
[54] = tested on: NCI-H23 lung
[55] = tested on: OVCAR-5 ovarian
[56] = tested on: HOP-62 NSCLC
[57] = tested on: K-562 leukemia
[58] = tested on: BT-549 breast

SMILES: O=C1[C@@H]2Cc3c([nH]c4ccccc34)[C@H](c3c(Cl)cccc3Cl)N2C(=O)CN1C1CCN(Cc2ccccc2)CC1
- GI50 [1]: 2.5 µM
- TGI [1]: 4.7 µM
- GI50 [2]: 1.55 µM
- TGI [2]: 7.25 µM
- GI50 [3]: 2.74 µM
- TGI [3]: 8.28 µM
- GI50 [4]: 6.78 µM
- TGI [4]: > 14.3 µM
- GI50 [5]: 2.07 µM
- TGI [5]: 7.52 µM
- GI50 [6]: 1.43 µM
- TGI [6]: 3.15 µM
- GI50 [7]: 2.52 µM
- TGI [7]: 5.09 µM
- GI50 [8]: 2.85 µM
- TGI [8]: 8.47 µM
- GI50 [9]: 1.92 µM
- TGI [9]: 3.86 µM
- GI50 [10]: 2.3 µM
- TGI [10]: 4.87 µM
- GI50 [11]: 1.81 µM
- TGI [11]: 4.79 µM
- GI50 [12]: 2.95 µM
- TGI [12]: 7.7 µM
- GI50 [13]: 2.4 µM
- TGI [13]: 4.82 µM
- GI50 [14]: 4.55 µM
- TGI [14]: > 14.3 µM
- GI50 [15]: 2.21 µM
- TGI [15]: 6.52 µM
- GI50 [16]: 2.46 µM
- TGI [16]: 5.68 µM
- GI50 [17]: 2.93 µM
- TGI [17]: 7.19 µM
- GI50 [18]: 2.37 µM
- TGI [18]: 4.55 µM
- GI50 [19]: 2.42 µM
- TGI [19]: 6.47 µM
- GI50 [20]: 2.19 µM
- TGI [20]: 4.15 µM
- GI50 [21]: 3.49 µM
- TGI [21]: 12.4 µM
- GI50 [22]: 2.46 µM
- TGI [22]: 4.62 µM
- GI50 [23]: 4.59 µM
- TGI [23]: > 14.3 µM
- GI50 [24]: 2.59 µM
- TGI [24]: 7.95 µM
- GI50 [25]: 2.32 µM
- TGI [25]: 6.92 µM
- GI50 [26]: 3.06 µM
- TGI [26]: 10.7 µM
- GI50 [27]: 2.82 µM
- TGI [27]: 10.8 µM
- GI50 [28]: 2.21 µM
- TGI [28]: 4.54 µM
- GI50 [29]: 2.34 µM
- TGI [29]: 4.63 µM
- GI50 [30]: 0.719 µM
- TGI [30]: 3.43 µM
- GI50 [31]: 4.33 µM
- TGI [31]: > 14.3 µM
- GI50 [32]: 2.6 µM
- TGI [32]: 5.49 µM
- GI50 [33]: 2.26 µM
- TGI [33]: 4.66 µM
- GI50 [34]: 2.13 µM
- TGI [34]: 4.61 µM
- GI50 [35]: 4.03 µM
- TGI [35]: 13.6 µM
- GI50 [36]: 4.94 µM
- TGI [36]: > 14.3 µM
- GI50 [37]: 3.03 µM
- TGI [37]: 13.8 µM
- GI50 [38]: 2.58 µM
- TGI [38]: 5.13 µM
- GI50 [39]: 2.57 µM
- TGI [39]: 6.27 µM
- GI50 [40]: 2.85 µM
- TGI [40]: 6.83 µM
- GI50 [41]: 2.78 µM
- TGI [41]: 6.86 µM
- GI50 [42]: 2.68 µM
- TGI [42]: 7.2 µM
- GI50 [43]: 4.09 µM
- TGI [43]: > 14.3 µM
- GI50 [44]: 2.82 µM
- TGI [44]: 5.68 µM
- GI50 [45]: 2.36 µM
- TGI [45]: 4.81 µM
- GI50 [46]: 2.42 µM
- TGI [46]: 5.1 µM
- GI50 [47]: 5.25 µM
- TGI [47]: > 14.3 µM
- GI50 [48]: 2.35 µM
- TGI [48]: 5.31 µM
- GI50 [49]: 2.37 µM
- TGI [49]: 4.55 µM
- GI50 [50]: 10.6 µM
- TGI [50]: > 14.3 µM
- GI50 [51]: 3.23 µM
- TGI [51]: 8.02 µM
- GI50 [52]: 3.8 µM
- TGI [52]: 13.1 µM
- GI50 [53]: 2.27 µM
- TGI [53]: 4.72 µM
- GI50 [54]: 4.77 µM
- TGI [54]: > 14.3 µM
- GI50 [55]: 3.12 µM
- TGI [55]: 9.29 µM
- GI50 [56]: 2.29 µM
- TGI [56]: 5.66 µM
- GI50 [57]: 2.98 µM
- TGI [57]: 7.56 µM
- GI50 [58]: 2.22 µM
- TGI [58]: 5.17 µM
